# Test system: MEK
# Assay: Cellular assay for measuring MEK inhibition, C26CPA1 (inhibition of ERK phosphorylation in C26 cells)
# Format: cell-based, murine
# Conditions: for C26CPA1 % Inhibition @ 0.1 μM / C26CPA1 % Inhibition @ 1 μM: C26 cells; for IC50: murine colon 26 (C26) carcinoma cells, one hour at 37 C
# Procedure: Cellular Assay for Measuring MEK Inhibition
# MEK inhibitors were evaluated by determining their ability to inhibit phosphorylation of MAP kinase (ERK) in murine colon 26 (C26) carcinoma cells. Since ERK1 and ERK2 represent the only known substrates for MEK1 and MEK2, the measurement of inhibition of ERK phosphorylation in cells provides direct read out of cellular MEK inhibition by the compounds of the invention. Detection of phosphorylation of ERK was carried out either by Western blot or ELISA format. Briefly, the assays involve treatment of exponentially growing C26 cells with varying concentrations of the test compound (or vehicle control) for one hour at 37≡ C. For Western blot assay, cells were rinsed free of compound/vehicle and lysed in a solution containing 70 mM NaCl, 50 mM glycerol phosphate, 10 mM HEPES, […], 1% Triton X-100, 1 mM Na3VO4, 100 μM PMSF, 10 μM leupeptin and 10 μM pepstatin. Supernatants were then subjected to gel electrophoresis and hybridized to a primary antibody recognizing dually phosphorylated ERK1 and ERK2. To evaluate total MAPK levels, blots were subsequently ‘stripped’ and re-probed with a 1:1 mixture of polyclonal antibodies recognizing unphosphorylated ERK1 and ERK2. For pERK ELISA assay, pERK TiterZyme Enzyme immunometric Assay kits were acquired from Assay Designs, Inc (Ann Arbor, Mich.). Briefly, cells were harvested in lysis solution containing 50 mM β-glycerophosphate, 10 mM HEPES, pH7.4, 70 mM NaCl, 2 mM EDTA and 1% SDS and protein lysates were diluted 1:15 with supplied Assay buffer prior to the execution of the assay. The subsequent steps were carried out essentially as recommended by the manufacturer.
IC50 [µM],Compound,C26CPA1 % Inhibition @ 0.1 μM [%],C26CPA1 % Inhibition @ 1 μM [%]
,"Cc1ccc(CNc2nnc(-c3ccc(F)c(F)c3Nc3ccc(I)cc3F)o2)o1 [Example 37, {5-[3,4-Difluoro-2-(2-fluoro-4-iodo-phenylamino)-phenyl]-[1,3,4]oxadiazol-2-yl}-(5-methyl-furan-2-ylmethyl)-amine]",18.4,87.2
,"CCc1ccc(Nc2c(-c3nnc(N4CCN(C)CC4)o3)ccc(F)c2F)c(F)c1 [Example 112, {2,3-Difluoro-6-[5-(4-methyl-piperazin-1-yl)-1,3,4-oxadiazol-2-yl]-phenyl}-(4-ethyl-2-fluoro-phenyl)-amine]",62.6,84
0.311,"Fc1cc(I)ccc1Nc1c(-c2nnc(NCCCN3CCOCC3)o2)ccc(F)c1F [Example 9, {5-[3,4-Difluoro-2-(2-fluoro-4-iodo-phenylamino)-phenyl]-[1,3,4]oxadiazol-2-yl}-(3-morpholin-4-yl-propyl)-amine]",,
0.076,"NCCCNc1nnc(-c2ccc(F)c(F)c2Nc2ccc(I)cc2F)o1 [Example 15, N′1′-{5-[3,4-Difluoro-2-(2-fluoro-4-iodo-phenylamino)-phenyl]-[1,3,4]oxadiazol-2-yl}-propane-1,3-diamine]",,
0.027,"CNCCNc1nnc(-c2ccc(F)c(F)c2Nc2ccc(I)cc2F)o1 [Example 18, N-{5-[3,4-Difluoro-2-(2-fluoro-4-iodo-phenylamino)-phenyl]-[1,3,4]oxadiazol-2-yl}-N′-methyl-ethane-1,2-diamine]",,
,"CC(C)(C)CNc1nnc(-c2ccc(F)c(F)c2Nc2ccc(I)cc2F)o1 [Example 47, {5-[3,4-Difluoro-2-(2-fluoro-4-iodo-phenylamino)-phenyl]-[1,3,4]oxadiazol-2-yl}-(2,2-dimethyl-propyl)-amine]",18.9,43.2
0.023,"Fc1cc(I)ccc1Nc1c(-c2nnc(NCCCCN3CCCC3)o2)ccc(F)c1F [Example 63, {5-[3,4-Difluoro-2-(2-fluoro-4-iodo-phenylamino)-phenyl]-[1,3,4]oxadiazol-2-yl}-(4-pyrrolidin-1-yl-butyl)-amine]",,
0.91,"CNCCNc1nnc(-c2ccc(F)c(F)c2Nc2ccc(CCO)cc2F)o1 [Example 167, 2-(4-{2,3-difluoro-6-[5-(2-methylamino-ethylamino)-1[1,3,4]oxadiazol-2-yl]-phenylamino}-3-fluoro-phenyl)-ethanol]",,
,"CC(C)CNc1nnc(-c2ccc(F)c(F)c2Nc2ccc(I)cc2F)o1 [Example 48, {5-[3,4-Difluoro-2-(2-fluoro-4-iodo-phenylamino)-phenyl]-[1,3,4]oxadiazol-2-yl}-isobutyl-amine]",31.7,66.9
,"Fc1cc(I)ccc1Nc1c(-c2nnc(N3CCCC3CN3CCCC3)o2)ccc(F)c1F (centres unmarked) [Example 54, {2,3-Difluoro-6-[5-(2-pyrrolidin-1-ylmethyl-pyrrolidin-1-yl)-[1,3,4]oxadiazol-2-yl]-phenyl}-(2-fluoro-4-iodo-phenyl)-amine]",21.7,30.8
,"COc1ccc(CCNc2nnc(-c3ccc(F)c(F)c3Nc3ccc(I)cc3F)o2)cc1OC [Example 40, {5-[3,4-Difluoro-2-(2-fluoro-4-iodo-phenylamino)-phenyl]-[1,3,4]oxadiazol-2-yl}-[2-(3,4-dimethoxy-phenyl)-ethyl]-amine]",0,26.2
0.85,"CN1CCCN(c2nnc(-c3ccc(F)c(F)c3Nc3ccc(I)cc3F)o2)CC1 [Example 61, {2,3-Difluoro-6-[5-(4-methyl-[1,4]diazepan-1-yl)-[1,3,4]oxadiazol-2-yl]-phenyl}-(2-fluoro-4-iodo-phenyl)-amine]",,
,"Fc1cc(I)ccc1Nc1c(-c2nnc(NC3CC4CCC3C4)o2)ccc(F)c1F (centres unmarked) [Example 51, Bicyclo[2,2,1]hept-2-yl-{5-[3,4-difluoro-2-(2-fluoro-4-iodo-phenylamino)-phenyl]-[1,3,4]oxadiazol-2-yl}-amine]",13.1,96
